Source: patent publication US20180169145A1, “COMPOSITIONS AND METHODS FOR USING LAMELLAR BODIES FOR THERAPEUTIC PURPOSES” (priority 2015, published 2018)
Read-outs that look alike come from different tables or passages of the source.

What was measured:
Pseudomonas aeruginosa [1] = assay: Artificial sputum medium (ASM) biofilm assay; type: cell-based; settings: for bacterial kill of antibiotic with LMS-611: LMS-611 at 40 μg/ml
Text: ASM is artificial sputum medium.
Images of PA biofilm in ASM. Quantification of bacterial count from the ASM biofilm (CFU/mL).
In vitro, Artificial Sputum Models (ASM), considered to represent biofilm typical of that seen in CF, were used to study Pseudomonas aeruginosa infection.
Pyocyanin, a blue-green phenazine pigment produced by P. aeruginosa and controlled by the quorum sensing system (a system of inter-bacterial signalling which correlates to population density) and thus its presence and concentration in a bacterial culture can be used to give an indication of the strength of quorum sensing activity.
Measurement of metabolic activity of Pseudomonas aeruginosa in the Artificial Sputum Model (ASM) using a Resazurin assay, in which the fluorescence detected is directly proportional to the metabolic activity of the bacteria (FIG. 3).

Burkholderia cenocepacia = assay: MBEC assay: sessile (biofilm) MIC of antibiotics in absence and presence of LMS-611; type: cell-based; settings: for MIC: Burkholderia cenocepacia
Protocol: Pseudomonas aeruginosa strains PA01, PAl4, two clinical Cystic Fibrosis (CF) strains H183, YH1 and Burkholderia cenocepacia strains K56-2, YHBCC5, YHBCC6, YHBCC7 and YHBCC8 were grown on a Nunc Immunosorp PEG plate model for 48 h on a rocking platform. […] Scanning electron microscopy was used to assess the treated biofilms.

Pseudomonas aeruginosa [2] = assay: as above; type: cell-based; settings: for sessile MIC / MIC: antibiotic alone; for sessile MIC + LMS: in presence of LMS-611 (10 mg/mL); for reduction of sessile MIC of the antibiotic by LMS-611: PA strains, in combination with LMS-611; for effect of LMS-611 with antibiotic in reducing biofilm MICs, compared with antibiotic alone: strain PA01, FIG. 14-17; for MIC: Pseudomonas aeruginosa
Protocol: Pseudomonas aeruginosa strains PA01, PAl4, two clinical Cystic Fibrosis (CF) strains […], YH1 and Burkholderia cenocepacia strains […]7 and YHBCC8 were grown on a Nunc Immunosorp PEG plate model for 48 h on a rocking platform. […] Scanning electron microscopy was used to assess the treated biofilms.

PA strains = assay: Nebulisation of LMS-611 combined with antibiotic, multistage liquid impactor (MSLI); design: species or system Pseudomonas aeruginosa; settings: colistin: PA2783 strain, stages representing site of cystic fibrosis lung disease; tobramycin: PA strain 27853
Text: FIG. 18 illustrates the effect of nebulisation of LMS-611 when combined with Colistin with PA strain 217M using nebulisers with two different modes of operation (Pari-boy (jet-type) and Pari Flow (oscillating mesh)) wherein a multistage liquid impactor (MSLI) was used to measure the aerodynamic particle size distribution and deposition from nebulised LMS-611 compositions wherein the MSLI from Copley measures particle size in accordance with the European Pharmacopeia guidelines (Chapter […]) and the impactor has five stages simulating the various parts of the human respiratory system. Particles with the same inertia will impact upon a particular stage, whilst smaller particles will pass onto the next impaction stage such that by analysing the amount of LMS-611 deposited on the various stages the fine particle dose and fraction can be calculated wherein the fine particle dose (respirable fraction) is the proportion of the dose from an inhalation device (nebuliser) that is made available to the airways, and this correlates with the dose of LMS-611 that reaches the conducting airways during inhalation;

Compound	sessile MIC + LMS (Pseudomonas aeruginosa [2]; PA strain H183) [µg/mL]	sessile MIC + LMS (Pseudomonas aeruginosa [2]; PA strain PA01) [µg/mL]	sessile MIC + LMS (Pseudomonas aeruginosa [2]; PA strain PA14) [µg/mL]	reduction of sessile MIC of the antibiotic by LMS-611 (Pseudomonas aeruginosa [2])	effect of LMS-611 with antibiotic in reducing biofilm MICs, compared with antibiotic alone (Pseudomonas aeruginosa [2])	sessile MIC + LMS (Pseudomonas aeruginosa [2]; PA strain YH1) [µg/mL]	MIC (Pseudomonas aeruginosa [2]; PA14, PA strain PA14) [µg/mL]	MIC (Pseudomonas aeruginosa [2]; PA strain H183) [µg/mL]	MIC (Pseudomonas aeruginosa [2]; PA strain PA01) [µg/mL]	MIC (Pseudomonas aeruginosa [2]; PA strain YH1) [µg/mL]	further results
O=C(O)c1cn(C2CC2)c2cc(N3CCNCC3)c(F)cc2c1=O [Ciprofloxacin]											bacterial kill of antibiotic with LMS-611 (Pseudomonas aeruginosa [1]): total bacterial kill
CC[C@H]1OC(=O)[C@H](C)[C@@H](O[C@H]2C[C@@](C)(OC)[C@@H](O)[C@H](C)O2)[C@H](C)[C@@H](O[C@@H]2O[C@H](C)C[C@H](N(C)C)[C@H]2O)[C@](C)(O)C[C@@H](C)C(=O)[C@H](C)[C@@H](O)[C@]1(C)O [erythromycin]											reduction of sessile MIC of the antibiotic by LMS-611 (Burkholderia cenocepacia; BCC strains, in combination with LMS-611): No effect
Gentamicin	500	500	500	4-8 fold	more effective						sessile MIC (Pseudomonas aeruginosa [2]; PA strain H183): 4000 µg/mL; sessile MIC (Pseudomonas aeruginosa [2]; PA strain PA01): 4000 µg/mL; sessile MIC (Pseudomonas aeruginosa [2]; PA strain PA14): 4000 µg/mL; sessile MIC (Pseudomonas aeruginosa [2]; PA strain YH1): 500 µg/mL; sessile MIC (Burkholderia cenocepacia; BCC strain K56-2, antibiotic alone): 256000 µg/mL; sessile MIC + LMS (Burkholderia cenocepacia; BCC strain K56-2, in presence of LMS-611 (10 mg/mL)): 64000 µg/mL; sessile MIC (Burkholderia cenocepacia; BCC strain YHBCC5, antibiotic alone): >256000 µg/mL; sessile MIC + LMS (Burkholderia cenocepacia; BCC strain YHBCC5, in presence of LMS-611 (10 mg/mL)): 256000 µg/mL; sessile MIC (Burkholderia cenocepacia; BCC strain YHBCC6, antibiotic alone): 64000 µg/mL; sessile MIC + LMS (Burkholderia cenocepacia; BCC strain YHBCC6, in presence of LMS-611 (10 mg/mL)): 16000 µg/mL; sessile MIC (Burkholderia cenocepacia; BCC strain YHBCC7, antibiotic alone): 128000 µg/mL; sessile MIC + LMS (Burkholderia cenocepacia; BCC strain YHBCC7, in presence of LMS-611 (10 mg/mL)): 16000 µg/mL
CC(C)(O/N=C(\C(=O)N[C@@H]1C(=O)N2C(C(=O)[O-])=C(C[n+]3ccccc3)CS[C@H]12)c1csc(N)n1)C(=O)O [ceftazidime]					more effective						
colistin					more effective						bactericidal effect of nebulised antibiotic combined with LMS-611 by MSLI stage (PA strains): greatest bactericidal effect
CCN1CCN(C(=O)N[C@@H](C(=O)N[C@@H]2C(=O)N3[C@@H]2SC(C)(C)[C@@H]3C(=O)O)c2ccccc2)C(=O)C1=O [Piperacillin]	250	250	1000	4-16 fold	more effective	1000	8000	4000	2000	8000	MIC (Burkholderia cenocepacia; BCC strain K56-2, antibiotic alone, read-out: sessile MIC): 64000 µg/mL; MIC (Burkholderia cenocepacia; BCC strain K56-2, in presence of LMS-611 (10 mg/mL), read-out: sessile MIC + LMS): 16000 µg/mL; MIC (Burkholderia cenocepacia; BCC strain YHBCC5, antibiotic alone, read-out: sessile MIC): 32000 µg/mL; MIC (Burkholderia cenocepacia; BCC strain YHBCC5, in presence of LMS-611 (10 mg/mL), read-out: sessile MIC + LMS): 4000 µg/mL; MIC (Burkholderia cenocepacia; BCC strain YHBCC6, antibiotic alone, read-out: sessile MIC): 32000 µg/mL; MIC (Burkholderia cenocepacia; BCC strain YHBCC6, in presence of LMS-611 (10 mg/mL), read-out: sessile MIC + LMS): 32000 µg/mL; MIC (Burkholderia cenocepacia; BCC strain YHBCC7, antibiotic alone, read-out: sessile MIC): 32000 µg/mL; MIC (Burkholderia cenocepacia; BCC strain YHBCC7, in presence of LMS-611 (10 mg/mL), read-out: sessile MIC + LMS): 4000 µg/mL
NC[C@H]1O[C@H](O[C@H]2[C@H](O)[C@@H](O[C@H]3O[C@H](CO)[C@@H](O)[C@H](N)[C@H]3O)[C@H](N)C[C@@H]2N)[C@H](N)C[C@@H]1O [Tobramycin]	<4000	<4000	<4000	1-4 fold		500	< 4000	< 4000	< 4000	2000	bacterial kill of antibiotic with LMS-611 (Pseudomonas aeruginosa [1]): total bacterial kill; bacterial clearance of LMS-611 plus antibiotic compared to antibiotic treatment alone (Pseudomonas aeruginosa [1]; preformed biofilm, in combination with LMS-611): significantly greater bacterial clearance; bactericidal effect of nebulised antibiotic combined with LMS-611 by MSLI stage (PA strains): greater on the 6.8 μm, 3.1 μm and 1.7 μm stages
C[C@@H](O)[C@H]1C(=O)N2C(C(=O)O)=C(S[C@@H]3CN[C@H](C(=O)N(C)C)C3)[C@H](C)[C@H]12 [Meropenem]	1000	2000	2000	1-2 fold		1000	2000	2000	2000	2000	
C[C@H]1[C@H](NC(=O)/C(=N\OC(C)(C)C(=O)O)c2csc(N)n2)C(=O)N1S(=O)(=O)O [Aztreonam]	2000	2000	2000	2-4 fold		1000	4000	4000	4000	4000	
